Assay results taken from patent US20240158446A1, “CYCLIC COMPOUND HAVING SELECTIVE INHIBITORY ACTION ON KRAS OVER HRAS AND NRAS” (CHUGAI SEIYAKU KABUSHIKI KAISHA, priority 2021, published 2024).
Where two headings read alike, the source gives them in different places.

Tests used:
[1] = biological target: GDP-bound HRAS wild-type protein (Homo sapiens, UniProt P01112); assay: Binding to HRAS by surface plasmon resonance (SPR), Single Cycle Kinetics; settings: for HRAS/KRAS (ratio of KD value for HRAS to KD value for KRAS): SPR, GDP-bound HRAS wild-type protein vs GDP-bound KRAS wild-type protein; for HRAS/KRAS (ratio of KD value with respect to GDP-bound HRAS wild-type protein to KD value with respect to KRAS): SPR KD ratio HRAS/KRAS, class symbols
GDP-bound HRAS wild-type protein, sequence (P01112 whole entry): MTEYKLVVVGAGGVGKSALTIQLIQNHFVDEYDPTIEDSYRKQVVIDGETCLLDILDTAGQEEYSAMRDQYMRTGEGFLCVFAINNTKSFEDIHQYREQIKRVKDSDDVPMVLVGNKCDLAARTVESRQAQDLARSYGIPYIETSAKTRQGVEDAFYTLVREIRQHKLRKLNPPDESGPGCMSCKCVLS

[2] = tested on: human lung cancer strain NCI-H441;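 note: cell proliferation inhibition after four days measured by CellTiter-Glo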
[3] = biological target: GDP-bound KRAS wild-type protein (Homo sapiens, UniProt P01116); assay: Binding to KRAS by surface plasmon resonance (SPR), Single Cycle Kinetics; settings: GDP-bound KRAS wild-type protein, read-out: KRAS KD
GDP-bound KRAS wild-type protein, sequence (P01116 whole entry): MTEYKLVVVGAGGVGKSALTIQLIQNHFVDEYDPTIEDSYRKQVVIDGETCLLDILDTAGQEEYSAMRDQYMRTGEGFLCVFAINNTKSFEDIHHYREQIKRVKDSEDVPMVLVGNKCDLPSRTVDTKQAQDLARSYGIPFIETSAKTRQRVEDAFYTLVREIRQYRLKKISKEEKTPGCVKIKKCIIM

[4] = biological target: GDP-bound NRAS wild-type protein (Homo sapiens, UniProt P01111); assay: Binding to NRAS by surface plasmon resonance (SPR), Single Cycle Kinetics; settings: for NRAS/KRAS (ratio of KD value for NRAS to KD value for KRAS): SPR, GDP-bound NRAS wild-type protein vs GDP-bound KRAS wild-type protein; for NRAS/KRAS (ratio of KD value with respect to GDP-bound NRAS wild-type protein to KD value with respect to KRAS): SPR KD ratio NRAS/KRAS, class symbols
GDP-bound NRAS wild-type protein, sequence (P01111 whole entry): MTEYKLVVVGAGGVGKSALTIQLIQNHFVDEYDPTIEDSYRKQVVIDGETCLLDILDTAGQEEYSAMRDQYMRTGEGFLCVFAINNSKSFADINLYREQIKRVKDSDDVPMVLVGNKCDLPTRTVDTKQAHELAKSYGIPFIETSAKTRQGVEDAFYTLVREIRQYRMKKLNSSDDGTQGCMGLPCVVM

[5] = SPR, Single Cycle Kinetics, 1:1 binding model
[6] = SPR Single Cycle Kinetics, 1:1 binding model

Compound | HRAS/KRAS (ratio of KD value for HRAS to KD value for KRAS) ([1]; KD ratio class) | IC50 [2] [nM] | Kd [3, 5] [nM] | NRAS/KRAS (ratio of KD value for NRAS to KD value for KRAS) ([4]; KD ratio class) | HRAS/KRAS (ratio of KD value with respect to GDP-bound HRAS wild-type protein to KD value with respect to KRAS) [1] | Kd [3, 6] [nM] | NRAS/KRAS (ratio of KD value with respect to GDP-bound NRAS wild-type protein to KD value with respect to KRAS) [4] | HRAS/KRAS (ratio of KD value for HRAS to KD value for KRAS) [1] | Kd ([3]; SPR, Single Cycle Kinetics) [nM] | NRAS/KRAS (ratio of KD value for NRAS to KD value for KRAS) [4]
CCO[C@@H]1C[C@H]2C(=O)NC3(CCC3)C(=O)N(C)[C@@H](C(CC)CC)C(=O)N(C)[C@H](C(=O)N(C)C)CC(=O)N(C)[C@@H](CC(C)C)C(=O)N[C@@H]([C@@H](C)CC)C(=O)N(C)CC(=O)N(C)[C@H]3C/C=C\CCN(C3=O)[C@@H](CC3CCCCC3)C(=O)N(C)CC(=O)N[C@@H](CCc3cc(F)c(C(F)(F)F)c(F)c3)C(=O)N2C1 [PP1432] | A (a compound having 10 or more and less than 20 is denoted as A) | 51.3 | 0.61 | AA (a compound having 20 or more is denoted as AA) | – | – | – | – | – | –
CCC[C@H]1C(=O)N[C@@H]([C@@H](C)CC)C(=O)N(C)CC(=O)N(C)[C@H]2C/C=C\CCN(C2=O)[C@@H](Cc2ccc(C)cc2)C(=O)N(C)CC(=O)N[C@@H](CCc2ccc(C(F)(F)F)c(OC)c2)C(=O)N2C[C@H](OCC)C[C@H]2C(=O)NC2(CC(C)(C)C2)C(=O)N(C)[C@@H](CC2CCC2)C(=O)N(C)[C@H](C(=O)N(C)C)CC(=O)N1C [PP2753] | – | 52 | – | – | B (a compound having 3 or more and less than 10 is denoted as B) | 0.97 | A (a compound having 10 or more and less than 20 is denoted as A) | – | – | –
CC[C@H](C)[C@@H]1NC(=O)[C@H](COC)N(C)C(=O)C[C@@H](C(=O)N2CCCCC2)N(C)C(=O)[C@H](C2CCCC2)N(C)C(=O)C2(CC(C)(C)C2)NC(=O)[C@@H]2C[C@@H](OC3CCC3)CN2C(=O)[C@H](CCc2cc(F)c(C(F)(F)F)c(F)c2)NC(=O)CN(C)C(=O)[C@H](Cc2ccc(C(F)(F)F)cc2)N2CC/C=C\C[C@@H](C2=O)N(C)C(=O)CN(C)C1=O [PP2664] | – | 19.8 | – | – | B (a compound having 3 or more and less than 10 is denoted as B) | 0.37 | A (a compound having 10 or more and less than 20 is denoted as A) | – | – | –
CCOC[C@H]1C(=O)N[C@@H]([C@@H](C)CC)C(=O)N(C)CC(=O)N(C)[C@H]2C/C=C\CCN(C2=O)[C@@H](Cc2ccc(C)cc2)C(=O)N(C)CC(=O)N[C@@H](CCc2ccc(C(F)(F)F)c(OC)c2)C(=O)N2C[C@@H](C)C[C@H]2C(=O)NC2(CC(C)(C)C2)C(=O)N(C)[C@@H](C2CCCC2)C(=O)N(C)[C@H](C(=O)N(C)C)CC(=O)N1C [PP2505] | – | 17.2 | – | – | – | – | – | B (a compound having 3 or more and less than 10 is denoted as B) | 0.13 | A (a compound having 10 or more and less than 20 is denoted as A)
CCC[C@H]1C(=O)N[C@@H](CC(C)C)C(=O)N2C[C@@H](OC)C[C@H]2C(=O)N(C)[C@H]2C/C=C\CCN(C2=O)[C@@H](Cc2ccc(C)cc2)C(=O)N(C)CC(=O)N[C@@H](CCc2ccc(C(F)(F)F)c(Cl)c2)C(=O)N2C[C@H](OCC)C[C@H]2C(=O)NC2(CCC2)C(=O)N(C)[C@@H](C2CCCC2)C(=O)N(C)[C@H](C(=O)N(C)C)CC(=O)N1C [PP2549] | – | 506 | – | – | B (a compound having 3 or more and less than 10 is denoted as B) | 6 | A (a compound having 10 or more and less than 20 is denoted as A) | – | – | –
CCO[C@@H]1C[C@H]2C(=O)NC3(CCC3)C(=O)N(C)[C@@H](C3CCCC3)C(=O)N(C)[C@H](C(=O)N3CCCCC3)CC(=O)N(C)[C@@H](CC3CC3)C(=O)N[C@@H]([C@@H](C)CC)C(=O)N(C)CC(=O)N(C)[C@H]3C/C=C\CCN(C3=O)[C@@H](Cc3ccc(C(F)(F)F)cc3)C(=O)N(C)CC(=O)N[C@@H](CCc3cc(F)c(C(F)(F)F)c(F)c3)C(=O)N2C1 [PP1291] | A (a compound having 10 or more and less than 20 is denoted as A) | 16.7 | 0.24 | A (a compound having 10 or more and less than 20 is denoted as A) | – | – | – | – | – | –
CCO[C@@H]1C[C@H]2C(=O)NC3(CCC3)C(=O)N(C)[C@@H](C3CCCC3)C(=O)N(C)[C@H](C(=O)N(C)C)CC(=O)N(C)[C@@H](Cc3ccccc3)C(=O)N[C@@H]([C@@H](C)CC)C(=O)N(C)CC(=O)N(C)[C@H]3CCCCCN(C3=O)[C@@H](Cc3ccc(F)cc3)C(=O)N(C)CC(=O)N[C@@H](CCc3cc(F)c(C(F)(F)F)c(F)c3)C(=O)N2C1 [PP1195] | – | 18.3 | – | – | – | – | – | B (a compound having 3 or more and less than 10 is denoted as B) | 0.074 | B (a compound having 3 or more and less than 10 is denoted as B)
CCC[C@H]1C(=O)N[C@@H]([C@@H](C)CC)C(=O)N(C2CC2)CC(=O)N(C)[C@H]2C/C=C\CCN(C2=O)[C@@H](CC2CCCCC2)C(=O)N(C)CC(=O)N[C@@H](CCc2ccc(C(F)(F)F)c(OC)c2)C(=O)N2C[C@H](OCC)C[C@H]2C(=O)N(C)C2(CCC2)C(=O)N(C)[C@@H](C(CC)CC)C(=O)N(C)[C@H](C(=O)N(C)C)CC(=O)N1C [PP2337] | – | 33.9 | – | – | – | – | – | A (a compound having 10 or more and less than 20 is denoted as A) | 3.2 | A (a compound having 10 or more and less than 20 is denoted as A)
CCO[C@@H]1C[C@H]2C(=O)NC3(CCC3)C(=O)N(C)[C@@H](C(CC)CC)C(=O)N(C)[C@H](C(=O)N3CCCC3)CC(=O)N(C)[C@@H](COC)C(=O)N[C@@H]([C@@H](C)CC)C(=O)N(C)CC(=O)N(C)[C@H]3C/C=C\CCN(C3=O)[C@@H](CC3CCC(F)(F)CC3)C(=O)N(C)CC(=O)N[C@@H](CCc3cc(F)c(C(F)(F)F)c(F)c3)C(=O)N2C1 [PP1440] | A (a compound having 10 or more and less than 20 is denoted as A) | 69.7 | 0.35 | AA (a compound having 20 or more is denoted as AA) | – | – | – | – | – | –
CCO[C@@H]1C[C@H]2C(=O)NC3(CCC3)C(=O)N(C)[C@@H](C3CCCC3)C(=O)N(C)[C@H](C(=O)N(C)C)CC(=O)N(C)[C@@H](CC3CCCC3)C(=O)N[C@@H]([C@@H](C)CC)C(=O)N(C)CC(=O)N(C)[C@H]3C/C=C\CCN(C3=O)[C@@H](Cc3ccc(C(F)(F)F)cc3)C(=O)N(C)CC(=O)N[C@@H](CCc3cc(F)c(Cl)c(F)c3)C(=O)N2C1 [PP1264] | B (a compound having 3 or more and less than 10 is denoted as B) | 15.9 | 0.37 | A (a compound having 10 or more and less than 20 is denoted as A) | – | – | – | – | – | –
CC[C@H](C)[C@@H]1NC(=O)[C@H](COC)N(C)C(=O)C[C@@H](C(=O)N(C)C)N(C)C(=O)[C@H](C2CCCC2)N(C)C(=O)C2(CC(C)(C)C2)NC(=O)[C@@H]2C[C@@H](OC3CCCC3)CN2C(=O)[C@H](CCc2ccc(Cl)c(Cl)c2)NC(=O)CN(C)C(=O)[C@H](Cc2ccc(C)cc2)N2CC/C=C\C[C@@H](C2=O)N(C)C(=O)CN(C2CC2)C1=O [PP2628] | – | 67.9 | – | – | A (a compound having 10 or more and less than 20 is denoted as A) | 0.9 | A (a compound having 10 or more and less than 20 is denoted as A) | – | – | –
CCCOC[C@H]1C(=O)N[C@@H]([C@@H](C)CC)C(=O)N(C)CC(=O)N(C)[C@H]2C/C=C\CCN(C2=O)[C@@H](Cc2ccc(C)cc2)C(=O)N(C)CC(=O)N[C@@H](CCc2ccc(C(F)(F)F)c(OC)c2)C(=O)N2C[C@H](OCC)C[C@H]2C(=O)NC2(CC(C)(C)C2)C(=O)N(C)[C@@H](C2CCCC2)C(=O)N(C)[C@H](C(=O)N(C)CC)CC(=O)N1C [PP2463] | – | 6.5 | – | – | – | – | – | A (a compound having 10 or more and less than 20 is denoted as A) | 0.11 | A (a compound having 10 or more and less than 20 is denoted as A)
CCC[C@H]1C(=O)N[C@@H]([C@@H](C)CC)C(=O)N2CCC[C@H]2C(=O)N(C)[C@H]2C/C=C\CCN(C2=O)[C@@H](Cc2ccc(C(F)F)cc2)C(=O)N(C)CC(=O)N[C@@H](CCc2ccc(Cl)c(Cl)c2)C(=O)N2C[C@H](OC3CCC3)C[C@H]2C(=O)NC2(CC(C)(C)C2)C(=O)N(C)[C@@H](C(CC)CC)C(=O)N(C)[C@H](C(=O)N(C)C)CC(=O)N1C [PP2646] | – | 92.6 | – | – | A (a compound having 10 or more and less than 20 is denoted as A) | 1.6 | AA (a compound having 20 or more is denoted as AA) | – | – | –
